Data as given in patent US20090023186A1, “USE OF VALPROIC ACID FOR ENHANCING PRODUCTION OF RECOMBINANT PROTEINS IN MAMMALIAN CELLS” (EXCELLGENE SA, priority 2007, published 2009).

System: HEK293E cells
Experiment: Influence of temperature on IgG batch titer and comparison with sodium butyrate (Example 2)
Type: cell-based, Human
Conditions: day 5 after transfection
Experimental: No. 14571C-[…]; Lot No. 6A0093; SAFC Biosciences, Lenexa, Kans., USA, “Ex-Cell” medium; note: “Ex-Cell” medium-as used herein-refers to a medium comprising 4 mmol/l L-glutamine) in a 50-ml filter tube each (TPP AG, Trasadingen, Switzerland; Cat. No. 87050, Lot 20050174). In a separate set, 10 million suspension-adapted CHO DG44 cells were resuspended in 0.5 ml of ProCHO5 serum-free medium with 4 mmol/[…] hypoxanthine and 0.194 g/l thymidine (BioWhittaker (Lonza), Belgium; Cat. No. BE12-[…]; Lot No. 7 MB0040; “ProCHO5” medium; note: “ProCHO5” medium-as used herein-refers to a medium comprising 4 mmol/[…] hypoxanthine and 0.194 g/l thymidine) in a 50-ml filter tube each (TPP AG, Trasadingen, Switzerland; Cat. No. 87050, Lot 20050174). Then 12.5 μg plasmid DNA at a concentration of 1 μg/μl was added in each tube with the following composition 50% (6.25 μg) p-LC (SEQ ID NO: 1) 50% (6.25 μg) p-HC (SEQ ID NO: 3). Plasmid p-LC comprises the genetic information for the production of the light chain of an IgG antibody, plasmid p-HC comprises the genetic information for the production of the heavy chain of an IgG antibody. The particular vector constructs used in the present invention can also be obtained from the inventors. The inventors can be contacted via e-mail at […]. Moreover, commercial services do exist that produce any desired nucleotide sequence even comprising several kilobase pairs including complete expression cassettes in plasmid backgrounds (e.g., Invitrogen, Carlsbad, USA; Geneart, Germany.) Thus, providing the genetic sequence information of the plasmids should enable one of ordinary skill in the art to order the plasmids of the present invention at one of the commercial services listed. After shortly mixing the DNA with the cells by gentle shaking, 25 μg of 25-kd linear polyethyleneimine (“PEI”; Polysciences, Eppelheim, Germany; [2]) were added at a concentration of 1 μg/μl to each of the tubes. After shortly mixing by gentle shaking, the filter tubes containing the cells together with the DNA and PEI were transferred into an orbital shaker (Kühner Shaker Cabinet ISF-4-W, “Kühner shaker”, Kühner AG, Birsfelden, Switzerland), and the cells were incubated for 4 hours at 37° C. in a 5% CO2 atmosphere under shaking at 180 rpm. After that time, 4.5 ml of Ex-Cell medium were added to each of the filter tubes containing HEK 293 cells and 4.5 ml of Pro-CHO5 were added to each of the filter tubes containing CHO DG44 cells. […] No. […] Sigma-Aldrich Chemie GmbH, Industriestrasse 25, CH-9471 Buchs SG) was added to the corresponding tubes at the corresponding final concentrations. The cells then were returned into the Kühner shaker. Half the tubes were incubated at 37° C. in a 5% CO2 atmosphere under shaking at 180 rpm, the other half was incubated at 31° C. […] The ELISA was performed as published in prior art. In short, Goat anti-human kappa light chain IgG (Biosource) was used for coating the ELISA-plates, and with AP-conjugated goat anti-human gamma chain IgG (Biosource) the synthesized IgG1 was detected. NPP was used as a substrate for the alkaline phosphatase. Absorption was measured at 405 nm against 490 nm using a microplate reader (SPECTRAmaxTM340; Molecular Devices, Palo Alto, Calif., USA).

[1] = 3.8 mmol/l VPA, relative to control = 1

SMILES: CCCC(CCC)C(=O)O [VPA, valproic acid]
- Batch titer increase at 31° C. [1]: 5.3 ± 0.4
- Batch titer increase at 37° C. [1]: 5.3 ± 0.5
- performance compared with sodium butyrate (batch titer increase) (31° C. and 37° C.): slightly better performance than sodium butyrate
